Data as given in ChEMBL document CHEMBL5338806, “Rationally Designed Nonapeptides with Great Skin Photoprotective Effect through Producing Type 1 Collagen and Blocking the mTOR Pathway” (J Med Chem, 2023).
Values belong to the molecule of their own block, whether it stands above or below them. The source made the active and inactive calls. The rule behind the calls is not given here. Where a SMILES comes first, the peptide text is derived from it.

Legend:
[1] = Antioxidant activity assessed as ABTS radical scavenging activity at 80 ug/mL incubated for 10 mins by absorbance based assay; type: functional; details: dose 80.0 µg/ml
HEK293 = experiment: Activation of COL1a2 transcriptional activity in HEK293 cells by dual-luciferase reporter assay; type: functional, cell-based; details: Homo sapiens
[2] = Antioxidant activity assessed as ROS scavenging activity; type: functional
[3] = Antioxidant activity assessed as DPPH radical scavenging activity by measuring eradication rate at 80 ug/mL incubated for 30 mins by absorbance based assay relative to control; type: functional; details: dose 80.0 µg/ml
Mus musculus [4] = experiment: Protection against UV radiation-stress induced skin damage in Kunming mouse model assessed as repair of broken skin at 20 ug/ml administered topically and measured every 2 days for 10 days; type: functional, organism-based; details: dose 20.0 µg/ml, route top, time 10.0 day
HFF-1 [5] = experiment: Cytotoxicity against HFF-1 cells upto 160 ug/mL incubated for 24 hrs by MTT assay; type: toxicity, cell-based; details: human, hff-1, 24 h, up to 160 µg/mL
[6] = Toxicity in Wistar rat mast cell assessed as cell degranulation by measuring beta-hexosaminidase release at 10 ug/mL incubated for 15 mins by fluorescence based analysis (reference value: 20.13 +/- 1.40 %); details: 0.25 h, at 10 µg/mL
[7] = target: Ribosomal protein S6 kinase (Homo sapiens) (UniProt P51812+Q9UBS0+O75676+Q15349+O75582+P23443+Q9UK32+Q15418); experiment: Inhibition of H2O2-induced S6K phosphorylation in HFF-1 cells at 5 to 25 ug/mL pretreated with compound for 24 hrs followed by H2O2 exposure for 2 hrs by Western blot analysis; type: cell-based; details: dose 5-25 µg/ml, time 26.0 hrs
HFF-1 [8] = experiment: Upregulation of COL-1 expression in UV-A-induced SIPS HFF-1 cell model pretreated with compound for 24 hrs followed by 10.8 J/cm^2 UV-A irradiation by Western blot analysis; type: functional, cell-based; details: Homo sapiens, dose 5-25 µg/ml
HFF-1 [9] = experiment: Induction of autophagy in H2O2-induced SIPS HFF-1 cell model assessed as beclin-1 expression at 5 to 25 ug/mL pretreated with compound for 24 hrs followed by H2O2 exposure for 2 hrs by Western blot analysis; type: functional, cell-based; details: Homo sapiens, dose 5-25 µg/ml, time 26.0 hrs
Mus musculus [10] = experiment: In vivo anti-skin aging activity against UV-induced SIPS Kunming mouse model assessed as repair of wrinkled skin at 100 ug/ml administered topically for 5 weeks in presence of propylene glycol by macroscopic analysis; type: functional, organism-based; details: dose 100.0 µg/ml, route top
HFF-1 [11] = experiment: Protection against UV-A/H2O2-stress induced premature senescence HFF-1 cell model assessed as cell migration by measuring cellular repair activity at 10 ug/mL upto 24 hrs by inverted microscopic based cell scratch assay; type: functional; details: Homo sapiens, dose 10.0 µg/ml
Mus musculus [12] = experiment: In vivo anti-skin aging activity against UV-induced SIPS Kunming mouse model assessed as upregulation of skin elasticity at 100 ug/ml administered topically and measured for 10 weeks in presence of propylene glycol; type: functional, organism-based; details: dose 100.0 µg/ml, route top
HFF-1 [13] = experiment: Restoration of H2O2-induced mitochondrial membrane potential damage in SIPS HFF-1 cell model at 5 to 25 ug/mL incubated for 20 mins by JC-1 staining based fluorescence microscopic analysis; type: functional; details: Homo sapiens, dose 5-25 µg/ml
[14] = Toxicity in Wistar rat mast cell assessed as cell degranulation by measuring increase in beta-hexosaminidase release at 160 ug/mL incubated for 15 mins by fluorescence based analysis (reference value: 0 +/- 1.40 %); details: 0.25 h, at 160 µg/mL
HFF-1 [15] = experiment: Inhibition of H2O2-induced AKT activation in HFF-1 cells assessed as downregulation of mTOR phosphorylation at 5 to 25 ug/mL pretreated with compound for 24 hrs followed by H2O2 exposure for 2 hrs by Western blot analysis; type: cell-based; details: Homo sapiens, dose 5-25 µg/ml, time 26.0 hrs
HFF-1 [16] = experiment: Antioxidant activity against UV-A-induced SIPS HFF-1 cell model assessed as recovery of CAT level at 5 to 25 ug/mL pretreated with compound followed by 10.8 J/cm^2 UV-A irradiation; type: functional, cell-based; details: Homo sapiens, dose 5-25 µg/ml
HFF-1 [17] = experiment: Antioxidant activity against UV-A-induced SIPS HFF-1 cell model assessed as recovery of SOD level at 5 to 25 ug/mL pretreated with compound followed by 10.8 J/cm^2 UV-A irradiation; type: functional, cell-based; details: Homo sapiens, dose 5-25 µg/ml
[18] = Stability of compound in human serum assessed as protease mediated degradation at 2 mg/mL incubated for 24 hrs by RP-HPLC analysis; type: ADME, cell-free
Erythrocyte = experiment: Hemolytic activity in human erythrocytes assessed as release of hemoglobin at 10 to 160 ug/ml; type: toxicity, cell-based; details: dose 10-160 µg/ml
HFF-1 [19] = experiment: Inhibition of intracellular ROS level in UV-A-induced SIPS HFF-1 cell model assessed as reduction in ROS level pretreated with compound for 24 hrs followed by 10.8 J/cm^2 UV-A irritation incubated for 30 mins under dark condition by DCFH-DA staining based flow cytometry analysis; type: functional; details: Homo sapiens, dose 5-50 µg/ml, time 24.5 hrs
HFF-1 [20] = experiment: Downregulation of MMP-1 expression in UV-A-induced SIPS HFF-1 cell model pretreated with compound for 24 hrs followed by 10.8 J/cm^2 UV-A irradiation by Western blot analysis; type: functional, cell-based; details: Homo sapiens, dose 5-25 µg/ml
Mus musculus [21] = experiment: In vivo anti-skin aging activity against UV-induced SIPS Kunming mouse model assessed as prevention of wrinkle and erythema formation at 100 ug/ml administered topically and measured for 10 weeks in presence of propylene glycol by macroscopic analysis; type: functional, organism-based; details: dose 100.0 µg/ml, route top
HFF-1 [22] = experiment: Protection against H2O2-induced SIPS HFF-1 cell model assessed as reduction in cell senescence at 5 to 25 ug/mL pretreated for 24 hrs followed by irritation with H2O2 for 2 hrs by SA-beta-Gal staining assay; type: functional, cell-based; details: Homo sapiens, dose 5-25 µg/ml, time 26.0 hrs
[23] = Toxicity in Wistar rat mast cell assessed as cell degranulation by measuring increase in beta-hexosaminidase release at 10 ug/mL incubated for 15 mins by fluorescence based analysis (reference value: 0 +/- 1.40 %); details: 0.25 h, at 10 µg/mL
[24] = Toxicity in Wistar rat mast cell assessed as cell degranulation by measuring beta-hexosaminidase release at 40 ug/mL incubated for 15 mins by fluorescence based analysis (reference value: 20.13 +/- 1.40 %); details: 0.25 h, at 40 µg/mL
HFF-1 [25] = experiment: Inhibition of H2O2-induced AKT phosphorylation in HFF-1 cells at 5 to 25 ug/mL pretreated with compound for 24 hrs followed by H2O2 exposure for 2 hrs by Western blot analysis; type: cell-based; details: Homo sapiens, dose 5-25 µg/ml, time 26.0 hrs
[26] = Antioxidant activity assessed as ABTS radical scavenging activity in presence of 400 mM NaCl; type: functional
Mus musculus [27] = experiment: In vivo anti-skin aging activity against UV-induced SIPS Kunming mouse model assessed as restoration of dorsal skin thickness at 100 ug/ml administered topically for 5 weeks in presence of propylene glycol by caliper method; type: functional, organism-based; details: dose 100.0 µg/ml, route top
Mus musculus [28] = experiment: In vivo anti-skin aging activity against UV-induced SIPS Kunming mouse model assessed as restoration of skin elasticity at 100 ug/ml administered topically for 5 weeks in presence of propylene glycol; type: functional, organism-based; details: dose 100.0 µg/ml, route top
[29] = Toxicity in Wistar rat mast cell assessed as cell degranulation by measuring beta-hexosaminidase release at 160 ug/mL incubated for 15 mins by fluorescence based analysis (reference value: 20.13 +/- 1.40 %); details: 0.25 h, at 160 µg/mL
[30] = target: Nuclear factor NF-kappa-B complex (Homo sapiens) (UniProt Q00653+P19838+Q04206); experiment: Inhibition of NF-kappaB activation in HFF-1 cells assessed as suppression of UV-A-induced IkappaBalpha degradation at 5 to 25 ug/mL pretreated with compound for 24 hrs followed by 10.8 J/cm^2 UV-A irradiation by Western blot analysis; type: cell-based; details: dose 5-25 µg/ml
Mus musculus [31] = experiment: In vivo anti-skin aging activity against UV-induced SIPS Kunming mouse model assessed as increase in Skin-fold thickness of dorsal skin at 100 ug/ml administered topically and measured for 10 weeks in presence of propylene glycol by caliper method; type: functional, organism-based; details: dose 100.0 µg/ml, route top
HFF-1 [32] = experiment: Inhibition of H2O2-stimulated IL-1beta production in SIPS HFF-1 cell model pre-incubated with compound for 12 hrs followed by H2O2 stimulation for 60 mins by ELISA method; type: functional, cell-based; details: Homo sapiens, dose 5-25 µg/ml, time 13.0 hrs
[33] = Toxicity in Wistar rat mast cell assessed as cell degranulation by measuring increase in beta-hexosaminidase release at 40 ug/mL incubated for 15 mins by fluorescence based analysis (reference value: 0 +/- 1.40 %); details: 0.25 h, at 40 µg/mL
HFF-1 [34] = experiment: Inhibition of H2O2-stimulated IL-6 production in SIPS HFF-1 cell model pre-incubated with compound for 12 hrs followed by H2O2 stimulation for 60 mins by ELISA method; type: functional, cell-based; details: Homo sapiens, dose 5-25 µg/ml, time 13.0 hrs
HFF-1 [35] = experiment: Induction of autophagy in H2O2-induced SIPS HFF-1 cell model assessed as phosphorylated AMPK expression at 5 to 25 ug/mL pretreated with compound for 24 hrs followed by H2O2 exposure for 2 hrs by Western blot analysis; type: functional, cell-based; details: Homo sapiens, dose 5-25 µg/ml, time 26.0 hrs
HFF-1 [36] = experiment: Induction of HFF-1 cell migration at 10 ug/mL measured for 2 to 8 hrs by transwell migration assay; type: functional, cell-based; details: Homo sapiens, dose 10.0 µg/ml, time 2-8 hrs
[37] = Antioxidant activity assessed as ABTS radical scavenging activity in presence of 50 mM NaCl; type: functional
HFF-1 [38] = experiment: Induction of autophagy in H2O2-induced SIPS HFF-1 cell model assessed as ratio of LC3BII/LC3BI levels at 5 to 25 ug/mL pretreated with compound for 24 hrs followed by H2O2 exposure for 2 hrs by Western blot analysis; type: functional, cell-based; details: Homo sapiens, dose 5-25 µg/ml, time 26.0 hrs
HFF-1 [39] = experiment: Inhibition of H2O2-stimulated TNF-alpha production in SIPS HFF-1 cell model pre-incubated with compound for 12 hrs followed by H2O2 stimulation for 60 mins by ELISA method; type: functional, cell-based; details: Homo sapiens, dose 5-25 µg/ml, time 13.0 hrs
HFF-1 [40] = experiment: Induction of autophagy in H2O2-induced SIPS HFF-1 cell model assessed as p62 expression at 5 to 25 ug/mL pretreated with compound for 24 hrs followed by H2O2 exposure for 2 hrs by Western blot analysis; type: functional, cell-based; details: Homo sapiens, dose 5-25 µg/ml, time 26.0 hrs
[41] = Thermal stability of compound by measuring retention of ABTS radical scavenging activity at 2 mg/mL at 37 degC for 96 hrs; type: physicochemical

Sequence of Nuclear factor NF-kappa-B complex (Homo sapiens) (P19838 whole entry, looked up): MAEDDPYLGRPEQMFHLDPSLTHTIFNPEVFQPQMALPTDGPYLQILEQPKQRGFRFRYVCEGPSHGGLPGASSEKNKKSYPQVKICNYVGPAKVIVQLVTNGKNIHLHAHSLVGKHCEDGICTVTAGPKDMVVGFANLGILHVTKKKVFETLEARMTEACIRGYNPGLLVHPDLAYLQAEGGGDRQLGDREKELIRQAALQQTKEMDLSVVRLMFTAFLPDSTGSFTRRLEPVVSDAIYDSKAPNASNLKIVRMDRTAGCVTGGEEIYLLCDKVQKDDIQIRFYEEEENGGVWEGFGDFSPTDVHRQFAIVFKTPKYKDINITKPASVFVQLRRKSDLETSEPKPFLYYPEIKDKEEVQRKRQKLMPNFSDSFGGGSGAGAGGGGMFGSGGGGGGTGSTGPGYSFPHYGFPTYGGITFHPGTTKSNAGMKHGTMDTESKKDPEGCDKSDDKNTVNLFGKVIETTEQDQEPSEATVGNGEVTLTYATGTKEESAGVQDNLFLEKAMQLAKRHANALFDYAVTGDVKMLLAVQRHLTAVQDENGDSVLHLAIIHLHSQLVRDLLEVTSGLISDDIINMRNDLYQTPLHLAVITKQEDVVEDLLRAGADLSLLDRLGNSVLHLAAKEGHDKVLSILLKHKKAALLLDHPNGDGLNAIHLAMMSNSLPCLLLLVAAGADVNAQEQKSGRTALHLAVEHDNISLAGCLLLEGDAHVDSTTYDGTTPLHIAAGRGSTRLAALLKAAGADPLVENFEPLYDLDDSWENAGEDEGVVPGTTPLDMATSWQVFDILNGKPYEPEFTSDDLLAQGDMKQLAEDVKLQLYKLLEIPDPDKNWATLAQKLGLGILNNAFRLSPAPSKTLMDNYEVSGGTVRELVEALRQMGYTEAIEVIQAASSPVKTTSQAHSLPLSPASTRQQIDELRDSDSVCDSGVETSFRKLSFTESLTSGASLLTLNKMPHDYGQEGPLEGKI
Sequence of Nuclear factor NF-kappa-B complex (Homo sapiens) (Q00653 whole entry, looked up): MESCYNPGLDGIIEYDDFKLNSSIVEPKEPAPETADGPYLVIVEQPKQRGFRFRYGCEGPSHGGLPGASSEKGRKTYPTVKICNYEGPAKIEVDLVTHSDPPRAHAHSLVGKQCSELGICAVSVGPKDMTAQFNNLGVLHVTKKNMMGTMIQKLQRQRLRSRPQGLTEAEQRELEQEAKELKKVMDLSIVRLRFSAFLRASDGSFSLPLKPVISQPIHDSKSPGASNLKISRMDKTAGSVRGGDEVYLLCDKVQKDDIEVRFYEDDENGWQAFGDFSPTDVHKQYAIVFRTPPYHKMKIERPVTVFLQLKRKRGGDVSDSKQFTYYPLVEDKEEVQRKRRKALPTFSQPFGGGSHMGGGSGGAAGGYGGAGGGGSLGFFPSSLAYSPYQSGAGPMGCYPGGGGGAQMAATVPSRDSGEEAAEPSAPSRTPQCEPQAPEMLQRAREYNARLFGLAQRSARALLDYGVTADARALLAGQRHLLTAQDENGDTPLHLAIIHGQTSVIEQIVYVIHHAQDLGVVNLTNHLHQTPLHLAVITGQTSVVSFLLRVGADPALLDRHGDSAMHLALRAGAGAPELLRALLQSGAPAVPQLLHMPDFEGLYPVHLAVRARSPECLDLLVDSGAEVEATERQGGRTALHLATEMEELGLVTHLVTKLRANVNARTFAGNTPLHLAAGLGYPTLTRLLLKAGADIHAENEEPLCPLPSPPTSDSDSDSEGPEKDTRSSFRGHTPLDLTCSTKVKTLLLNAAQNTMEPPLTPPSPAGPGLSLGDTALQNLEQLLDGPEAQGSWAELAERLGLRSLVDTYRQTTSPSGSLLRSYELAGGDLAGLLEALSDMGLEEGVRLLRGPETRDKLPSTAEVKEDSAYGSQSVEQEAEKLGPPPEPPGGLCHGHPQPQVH
Sequence of Nuclear factor NF-kappa-B complex (Homo sapiens) (Q04206 whole entry, looked up): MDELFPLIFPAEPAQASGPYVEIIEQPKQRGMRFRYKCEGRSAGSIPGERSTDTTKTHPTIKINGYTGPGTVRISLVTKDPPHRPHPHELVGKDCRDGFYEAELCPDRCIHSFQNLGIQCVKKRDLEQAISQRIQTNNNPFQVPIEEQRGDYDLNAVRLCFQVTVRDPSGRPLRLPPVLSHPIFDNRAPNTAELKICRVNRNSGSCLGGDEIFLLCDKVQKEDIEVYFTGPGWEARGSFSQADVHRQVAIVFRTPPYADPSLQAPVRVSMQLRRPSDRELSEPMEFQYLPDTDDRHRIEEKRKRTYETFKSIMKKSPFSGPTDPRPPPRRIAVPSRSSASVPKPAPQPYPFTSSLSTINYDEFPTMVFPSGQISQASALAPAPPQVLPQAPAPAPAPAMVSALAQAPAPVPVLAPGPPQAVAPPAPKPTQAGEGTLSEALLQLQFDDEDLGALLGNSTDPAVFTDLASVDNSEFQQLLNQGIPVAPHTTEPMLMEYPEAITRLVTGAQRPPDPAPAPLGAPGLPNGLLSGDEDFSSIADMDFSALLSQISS

Structure (SMILES): CC(C)[C@H](N)C(=O)N[C@H](C(=O)N[C@@H](CS)C(=O)N1CCC[C@H]1C(=O)N[C@@H](CCCCN)C(=O)O)C(C)C (H-VVCPK-OH)
Activity [1]: Active
Activity (HEK293): Active
Activity [2]: Active

Structure (SMILES): CC(C)[C@H](N)C(=O)N[C@H](C(=O)N[C@@H](CCCCN)C(=O)N[C@@H](CS)C(=O)N1CCC[C@H]1C(=O)N[C@@H](CCCCN)C(=O)O)C(C)C (H-VVKCPK-OH)
Activity [3]: 85.4%
Activity (Mus musculus [4]): Active
Activity (HEK293): Active
Activity [2]: Active

Structure (SMILES): CC(C)[C@H](N)C(=O)N[C@H](C(=O)N1CCC[C@H]1C(=O)N1CCC[C@H]1C(=O)N[C@@H](CS)C(=O)N[C@@H](CCCCN)C(=O)O)C(C)C (H-VVPPCK-OH)
Activity (HFF-1 [5]): 2.84%
Activity [2]: Active

inhibition [7]: Active
Stability [18]: Stable
Activity [30]: Active
Activity [41]: Active
Structure (SMILES): CC(C)[C@H](N)C(=O)N[C@H](C(=O)N1CCC[C@H]1C(=O)N[C@H](C(=O)N[C@H](C(=O)N[C@H](C(=O)N[C@@H](CS)C(=O)N1CCC[C@H]1C(=O)N[C@@H](CCCCN)C(=O)O)C(C)C)C(C)C)[C@@H](C)O)C(C)C (H-VVPTVVCPK-OH)
Activity [6]: 21.4%
Activity (HFF-1 [8]): Dose-Dependent Effect
Activity (HFF-1 [9]): Active
Activity (Mus musculus [10]): Active
Activity (HFF-1 [11]): Active
Activity (Mus musculus [12]): Active
Activity (HFF-1 [13]): Active
Activity [14]: 5.9%
inhibition (HFF-1 [15]): Active
Activity (HFF-1 [16]): Active
Activity (HFF-1 [17]): Active
Activity (Erythrocyte): Non-Toxic
Activity (Mus musculus [4]): Active
inhibition (HFF-1 [19]): Dose-Dependent Effect
Activity (HFF-1 [20]): Dose-Dependent Effect
Activity (HFF-1 [5]): 5.14%
Activity (Mus musculus [21]): Active
Activity (HFF-1 [22]): Active
Activity [23]: 1.27%
Activity [24]: 23.14%
inhibition (HFF-1 [25]): Active
Activity [26]: Active
Activity (Mus musculus [27]): Active
Activity (Mus musculus [28]): Active
Activity [29]: 26.03%
Activity (Mus musculus [31]): Active
inhibition (HFF-1 [32]): Dose-Dependent Effect
Activity [33]: 3.01%
inhibition (HFF-1 [34]): Dose-Dependent Effect
Activity (HFF-1 [35]): Active
Activity (HEK293): Active
Activity (HFF-1 [36]): Active
Activity [37]: Active
Activity (HFF-1 [38]): Active
inhibition (HFF-1 [39]): Dose-Dependent Effect
Activity (HFF-1 [40]): Active
Activity [2]: Active
